Reference: patent US7439251B2, “Methods and compositions for treatment of central and peripheral nervous system disorders and novel compounds useful therefor” (Israel Institute for Biological Research, priority 2002, dated 2008)

How the values were obtained:
[1] = tested on: rat pheochromocytoma cells transfected with the M1 mAChR
Experimental: Confluent rat pheochromocytoma cells transfected with the M1 mAChR cultures were detached with trypsin, washed and plated in 24well, 6-well, 60-mm or 100-mm plates that were precoated with rat tail collagen (Sigma, Israel). Several experiments were performed in serum-free medium. For 3-(4,5-dimethylthiazol-2-yl)-2,5-diphenyl-tetrazolium bromide (MIT) assay, cells (1.5×10^4) were plated in 96-well collagen-precoated plates, in serum-free medium, with or without various drugs for 24 hours. For differentiation, cells were grown in the presence of 1% FCS and 1% HS, with addition of 50 ng/ml NGF for 7 days, to cause full differentiation. […] After 7 days, cells were washed and the medium was either replaced to serum-free, or cells were detached and replated in serum-free medium. Cells in serum-free medium were treated either with Aβ peptides that were previously “aged” or with H2O2. Tested compounds were added together with the insults for the indicated time, unless otherwise stated.
Cells were grown and treated on glass coverslips. After treatments, cells were fixed in cold methanol for 5 min at −20° C. followed by treatment with cold acetone at 4° C. for 2 min and washing in PBS. The coverslips were fluorescently stained with DAPI (4,6-diamidino-2-phenylindole; 5 mg/ml, Sigma, Israel) an intercalating agent that enables visualization of chromatin condensation in the cell nuclei for 15 min at room temperature. Cells were washed three times with PBS, mounted in a solution of glycerol containing 22 mM 1,4 dizabicyclo(2,2,2)octane (Sigma, Israel) to prevent fading, and viewed for nuclear chromatin morphology with a fluorescence microscope. Apoptotic and viable cells were counted (200 cells per coverslip, each experiment was performed in duplicates).
The TUNEL (Terminal deoxynucleotidyl transferase (TdT) mediated dUTP nick end labeling) method enzymatically labels DNA fragments at the 3′OH ends (representing the DNA strand breaks) with fluorescein-dUPT (Boehringer Mannheim, Germany). Briefly, following treatment, cells grown on Chamber slides were fixed with paraformaldehyde solution (4%) in PBS, pH 7.4 for 30 min at room temperature. Following washing with PBS cells were permeabilized using 0.1% Triton X-100, 0.1% sodium citrate solution, for 2 min on ice (4° C.), washed with PBS and 50 μl of TUNEL reaction mixture was added on each sample for 1 hr at 37° C., in a humidified chamber. Evans Blue reagent (diluted 1:2000 in PBS) was added for 5 min and the slides were viewed with fluorescence microscope.
Cells were differentiated for 7 days and detached from the plates with Trypsin. 10^6 cells were replated in 50-mm collagen-coated plates in serum-free medium in presence or absence of various treatments. 200-g-centrifuged pellets were prepared and resuspended in 300 μl PBS. 4 ml of cold methanol (−20° C.) were added to each test tube and the fixation was carried out for 15 min at −20° C. Cells were washed in PBS, spun and resuspended in 1 ml PBS. Five microliters of Propidium iodide stock solution (Sigma; 10 mg/ml) and 5 μl of 20 mg/ml solution of RNAse A were added for 5-10 min at room temperature. Fluorescence of individual nuclei was measured using Fluorescence Activated Cell Sorter (FACScan; Becton Dickinson Corp.) excited at 488 nm wavelength and collected through 575±21 nm BP filter. The data were analyzed by Cell Quest software computer system. By this method we were able to measure DNA content of the cells (apoptotic cells have less DNA). Cells in G1 phase of cell cycle are after mitosis and have less DNA than cells in G2/M phase (before and during mitosis). Apoptotic cells were identified as the pre-G1 phase.

[2] = Morris water maze in C57BL/10SnJ (small hippocampus) vs C57BL6J mice; type: in vivo; settings: for reversal test, swimming speed: normal hippocampi mice, AF150(S) 0.5 mg/kg, AF267B 1 mg/kg
Experimental: C57BL/10SnJ (B10) mice were selected due to their small hippocampi and decreased number of hippocampal pyramidal neurons; the cell loss seemed to be associated with poor spatial learning.
Each group of mice was randomly divided into 7 treatment groups (n=12-14/group). […] All tested compounds and saline were administered once a day for 4 days before starting the behavioral testing, and then for the duration of the 5-day experiment, 30 minutes before testing.
Training: Each mouse was trained for four consecutive days, four trials (one block) per day, in which the platform position remained constant and was located in the center of the southeast quadrant of the pool. Within each block of four trials, each mouse started at each of the starting locations, but the sequence of locations was randomly selected. A trial consisted of placing a mouse by hand into the water facing the wall of the pool at one of four starting locations, north, south, east or west, around the pool's perimeter. Escape latency (the time to find the platform), path length (the distance traveled by the mouse) and speed (the swimming rate of the mouse) were recorded on each trial by the monitoring system.
For each mouse, the path length, escape latency, and swimming speed of the four trials on each of the 4 training days were grouped into blocks (one block for each day). […] Specific comparisons were performed, using the simple main effects contrasts analysis, which is specifically suited for testing significant interactions.
Transfer test. During trial No. 17, on the fourth day, the platform was entirely removed from the pool (a probe trial). In this trial, the mouse was placed into the water for a limited period (30 s), and its spatial bias was measured by recording the relative distribution of escape latency and path length over the four quadrants of the pool.
Reversal test. During trials 18-21, on the fifth day, the platform position was changed to the northwest quadrant, opposite to the training quadrant Thus, during reversal learning, the platform location was moved relative to the configuration of objects within the room, but the pool occupied the same place within the room throughout the entire experiment. Testing of the […] and measures taken were the same as in training.
For each mouse, the escape latency, path length and swimming speed of the reversal test (trials No. 18-21) were grouped into one block.

human M1 receptor = target: T1, human M1 receptor (Homo sapiens, UniProt P11229); experiment: Arachidonic acid (AA) release, human M1; type: cell-based
T1 construct: expressed in transfected cells
T1 sequence (P11229 1-460): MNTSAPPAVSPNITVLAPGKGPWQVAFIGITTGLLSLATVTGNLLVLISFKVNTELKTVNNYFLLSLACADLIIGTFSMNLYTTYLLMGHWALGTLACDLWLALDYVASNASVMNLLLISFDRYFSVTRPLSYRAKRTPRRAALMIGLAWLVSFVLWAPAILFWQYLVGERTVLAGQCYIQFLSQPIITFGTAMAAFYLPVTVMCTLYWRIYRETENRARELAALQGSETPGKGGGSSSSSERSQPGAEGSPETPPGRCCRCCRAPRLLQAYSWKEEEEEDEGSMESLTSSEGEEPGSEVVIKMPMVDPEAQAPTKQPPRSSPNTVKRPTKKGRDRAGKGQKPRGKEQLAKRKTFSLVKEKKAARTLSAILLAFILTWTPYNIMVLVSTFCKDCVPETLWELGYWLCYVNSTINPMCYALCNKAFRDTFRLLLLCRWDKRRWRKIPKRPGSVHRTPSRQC

[3] = normal hippocampus mice, AF150(S) at 1 mg/kg
[4] = small hippocampus mice, both doses
[5] = small hippocampus mice, AF150(S) both doses, AF267B the higher dose
[6] = small hippocampus mice, AF compounds 0.5 and 1 mg/kg i.p., rivastigmine, nicotine 1 mg/kg i.p.

| Compound | H2O2-induced apoptosis (DAPI) [1] | apoptotic cell death induced by starvation (DAPI) [1] | apoptotic death during starvation (FACS) [1] | β-amyloid 25-35 induced apoptosis (TUNEL) [1] | β-amyloid increased apoptotic population (FACS) [1] | reversal test, swimming speed [2] | training, escape latency ([2]; normal hippocampus mice) | training, swimming speed ([2]; normal hippocampus mice) | reversal test, escape latency ([2]; normal hippocampus mice, AF150(S) at 0.5 mg/kg) | reversal test, path length [2, 3] | transfer test, spatial bias [2, 3] | training, path length ([2]; normal hippocampus mice, AF150(S) only the higher dose) | training, swimming speed ([2]; small hippocampus mice) | transfer test, spatial bias ([2]; small hippocampus mice) | reversal test, escape latency [2, 4] | training, path length [2, 5] | training, escape latency [2, 6] | AA release vs. CCh (as 100%) (human M1 receptor) |
| --- | --- | --- | --- | --- | --- | --- | --- | --- | --- | --- | --- | --- | --- | --- | --- | --- | --- | --- |
| CC1=NCC2(CCN(C)CC2)S1 [AF150(S), 2,8-Dimethyl-1-thia-3,8-diaza-spiro[4.5]dec-2-ene] | prevented | significantly protect | protected cells from apoptotic death | able to block the apoptosis | reduced the apoptotic population significantly | significantly decreased | increased the escape latencies | impaired the swimming speed | impaired the escape latency | impairment of reversal learning | only a partial spatial bias | impaired the path length | enhancing effect of AF150(S) was equal in both doses | complete spatial bias | improved the escape latency | positively affected the performance | positively affected the training performance | – |
| CC[C@@H]1SC2(CCN(C)CC2)NC1=O [AF267B, (S)-2-ethyl-8-methyl-1-thia-4,8-diaza-spiro[4.5]decan-3-one] | prevented | significantly protect | protected cells from apoptotic death | – | reduced the apoptotic population significantly | significantly decreased | did not significantly affect the escape latencies | had no such effect | – | – | – | – | enhanced the swimming speed in a dose dependent manner | complete spatial bias | improved the escape latency | positively affected the performance | positively affected the training performance | 100% |
| CC[C@@H]1SC2(CCNCC2)NC1=O [AF292, (S)-2-Ethyl-1-thia-4,8-diaza-spiro[4.5]decan-3-one] | – | – | – | – | – | – | – | – | – | – | – | – | – | – | – | – | – | > 88% |
